{"source": "paper PMC6340895", "about": "(Protein & Cell, 2019)", "key": {"[1]": {"system": "pseudotype of GTOV, JUNV, MACV, SABV, CHAPV, LCMV, LUJV, MOPV, EBOV, and MARV", "assay_type": "cell-based"}, "LASV": {"system": "LASV", "details": "cited from earlier work"}, "CHAPVpv": {"system": "CHAPVpv", "assay": "microbe, parasite or virus in culture", "assay_type": "cell-based, Chapare virus (CHAPV)", "details": "Mammarenavirus chapareense, read-out: CHAPVpv IC50"}, "JUNVpv": {"system": "JUNVpv", "assay": "organism not typed", "assay_type": "cell-based, Junín virus (JUNV)", "details": "read-out: JUNVpv IC50"}, "SABVpv": {"system": "SABVpv", "assay": "organism not typed", "assay_type": "cell-based, Sabiá virus (SABV)", "details": "read-out: SABVpv IC50"}, "TfR1": {"system": "TfR1", "assay_type": "cell-based"}, "[2]": {"system": "pseudotype of NW pathogenic arenaviruses", "assay_type": "cell-based"}}, "data": [{"smiles": "C/C(=N\\NC(=O)CCc1ccccc1C(F)(F)F)c1ccc(NC(=O)c2ccco2)cc1", "note": "[compound 30, O=C(CCC1=C(C(F)(F)F)C=CC=C1)N/N=C(C)/C2=CC=C(NC(C3=CC=CO3)=O)C=C2]", "values": [{"measurement": "CC50", "setting": "in vitro", "value": "> 30", "unit": "µM"}]}, {"smiles": "C/C(=N\\NC(=O)CCCCc1ccccc1)c1ccc(NC(=O)c2ccco2)cc1", "note": "[compound 27, O=C(CCCCC1=CC=CC=C1)N/N=C(C)/C2=CC=C(NC(C3=CC=CO3)=O)C=C2]", "values": [{"measurement": "CC50", "setting": "in vitro", "value": "> 30", "unit": "µM"}]}, {"smiles": "C/C(=N\\NC(=O)CCc1ccccc1C)c1ccc(NC(=O)c2ccco2)cc1", "note": "[compound 20, O=C(CCC1=C(C)C=CC=C1)N/N=C(C)/C2=CC=C(NC(C3=CC=CO3)=O)C=C2]", "values": [{"measurement": "CC50", "setting": "in vitro", "value": "> 30", "unit": "µM"}]}, {"smiles": "C/C(=N\\NC(=O)CCc1ccc(F)cc1)c1ccc(NC(=O)c2ccco2)cc1", "note": "[compound 26, O=C(CCC1=CC=C(F)C=C1)N/N=C(C)/C2=CC=C(NC(C3=CC=CO3)=O)C=C2]", "values": [{"measurement": "CC50", "setting": "in vitro", "value": "> 30", "unit": "µM"}]}, {"smiles": "Cc1ccc(CCC(=O)CCC(C)c2ccc(NC(=O)c3ccco3)cc2)cc1", "note": "(stereo not shown) [compound 72]", "values": [{"measurement": "Antiviral specificity across pseudotype panel", "setting": "[1]", "value": "largely maintained LASV specificity"}]}, {"smiles": "C/C(=N\\NC(=O)CCc1ccccc1)c1ccc(NC(=O)c2ccco2)cc1", "note": "[compound 3, O=C(CCC1=CC=CC=C1)N/N=C(C)/C2=CC=C(NC(C3=CC=CO3)=O)C=C2]", "values": [{"measurement": "CC50", "setting": "in vitro", "value": "> 30", "unit": "µM"}]}, {"smiles": "C/C(=N\\NC(=O)C1CC1c1ccccc1)c1ccc(NC(=O)c2ccco2)cc1", "note": "(stereo not shown) [ST-161]", "values": [{"measurement": "Antiviral specificity", "setting": "LASV", "value": "LASV specific"}]}, {"smiles": "C/C(=N\\NC(=O)Cc1ccccc1)c1ccc(NC(=O)c2ccco2)cc1", "note": "[compound 7, O=C(CC1=CC=CC=C1)N/N=C(C)/C2=CC=C(NC(C3=CC=CO3)=O)C=C2]", "values": [{"measurement": "CC50", "setting": "in vitro", "value": "> 30", "unit": "µM"}]}, {"smiles": "C/C(=N\\NC(=O)CCc1ccc(C)cc1)c1ccc(NC(=O)c2ccco2)cc1", "note": "[compound 9, O=C(CCC1=CC=C(C)C=C1)N/N=C(C)/C2=CC=C(NC(C3=CC=CO3)=O)C=C2]", "values": [{"measurement": "CC50", "setting": "in vitro", "value": "> 30", "unit": "µM"}]}, {"smiles": "COc1ccc(CCC(=O)N/N=C(\\C)c2ccc(NC(=O)c3ccco3)cc2)c(OC)c1", "note": "[compound 28, O=C(CCC1=C(OC)C=C(OC)C=C1)N/N=C(C)/C2=CC=C(NC(C3=CC=CO3)=O)C=C2]", "values": [{"measurement": "CC50", "setting": "in vitro", "value": "> 30", "unit": "µM"}]}, {"smiles": "COc1ccc(CCC(=O)N/N=C(\\C)c2ccc(NC(=O)c3ccco3)cc2)cc1", "note": "[compound 22, O=C(CCC1=CC=C(OC)C=C1)N/N=C(C)/C2=CC=C(NC(C3=CC=CO3)=O)C=C2]", "values": [{"measurement": "CC50", "setting": "in vitro", "value": "> 30", "unit": "µM"}]}, {"smiles": "C/C(=N\\NC(=O)Cc1ccc(Cl)cc1Cl)c1ccc(NC(=O)c2ccco2)cc1", "note": "[compound 8, O=C(CC1=C(Cl)C=C(Cl)C=C1)N/N=C(C)/C2=CC=C(NC(C3=CC=CO3)=O)C=C2]", "values": [{"measurement": "CC50", "setting": "in vitro", "value": "> 30", "unit": "µM"}]}, {"smiles": "C/C(=N\\NC(=O)CCc1cccc([N+](=O)[O-])c1)c1ccc(NC(=O)c2ccco2)cc1", "note": "[compound 25, O=C(CCC1=CC([N+]([O-])=O)=CC=C1)N/N=C(C)/C2=CC=C(NC(C3=CC=CO3)=O)C=C2]", "values": [{"measurement": "CC50", "setting": "in vitro", "value": "> 30", "unit": "µM"}]}, {"smiles": "C/C(=N\\NC(=O)CCc1ccccc1F)c1ccc(NC(=O)c2ccco2)cc1", "note": "[compound 10, O=C(CCC1=C(F)C=CC=C1)N/N=C(C)/C2=CC=C(NC(C3=CC=CO3)=O)C=C2]", "values": [{"measurement": "CC50", "setting": "in vitro", "value": "> 30", "unit": "µM"}]}, {"smiles": "C/C(=N\\NC(=O)CCc1ccc([N+](=O)[O-])cc1)c1ccc(NC(=O)c2ccco2)cc1", "note": "[compound 24, O=C(CCC1=CC=C([N+]([O-])=O)C=C1)N/N=C(C)/C2=CC=C(NC(C3=CC=CO3)=O)C=C2]", "values": [{"measurement": "CC50", "setting": "in vitro", "value": "> 30", "unit": "µM"}]}, {"smiles": "C/C(=N\\NC(=O)CCc1cccc(C)c1)c1ccc(NC(=O)c2ccco2)cc1", "note": "[compound 21, O=C(CCC1=CC(C)=CC=C1)N/N=C(C)/C2=CC=C(NC(C3=CC=CO3)=O)C=C2]", "values": [{"measurement": "Antiviral specificity across pseudotype panel", "setting": "[1]", "value": "largely maintained LASV specificity"}, {"measurement": "CC50", "setting": "in vitro", "value": "> 30", "unit": "µM"}]}, {"smiles": "C/C(=N\\NC(=O)CCc1ccc(Br)cc1)c1ccc(NC(=O)c2ccco2)cc1", "note": "[compound 29, O=C(CCC1=CC=C(Br)C=C1)N/N=C(C)/C2=CC=C(NC(C3=CC=CO3)=O)C=C2]", "values": [{"measurement": "Antiviral specificity across pseudotype panel", "setting": "[1]", "value": "largely maintained LASV specificity"}, {"measurement": "CC50", "setting": "in vitro", "value": "> 30", "unit": "µM"}]}, {"smiles": "C/C(=N\\NC(=O)CCCc1ccccc1)c1ccc(NC(=O)c2ccco2)cc1", "note": "[compound 56, O=C(CCCC1=CC=CC=C1)N/N=C(C)/C2=CC=C(NC(C3=CC=CO3)=O)C=C2]", "values": [{"measurement": "CC50", "setting": "in vitro", "value": "> 30", "unit": "µM"}]}, {"smiles": "C/C(=N\\NC(=O)CCc1ccc(C(C)(C)C)cc1)c1ccc(NC(=O)c2ccco2)cc1", "note": "[compound 57, O=C(CCC1=CC=C(C(C)(C)C)C=C1)N/N=C(C)/C2=CC=C(NC(C3=CC=CO3)=O)C=C2]", "values": [{"measurement": "IC50", "setting": "CHAPVpv", "value": 0.0898, "unit": "µM"}, {"measurement": "IC50", "setting": "JUNVpv", "value": 0.096, "unit": "µM"}, {"measurement": "IC50", "setting": "SABVpv", "value": 0.244, "unit": "µM"}, {"measurement": "Cell surface expression of TfR1", "setting": "TfR1", "value": "did not down-regulate"}, {"measurement": "Effect on binding of NW pathogenic viruses", "setting": "[2]", "value": "no effect"}, {"measurement": "CC50", "setting": "in vitro", "value": "> 30", "unit": "µM"}]}, {"smiles": "COc1ccc(CC(=O)N/N=C(\\C)c2ccc(NC(=O)c3ccco3)cc2)cc1", "note": "[compound 54, O=C(CC1=CC=C(OC)C=C1)N/N=C(C)/C2=CC=C(NC(C3=CC=CO3)=O)C=C2]", "values": [{"measurement": "CC50", "setting": "in vitro", "value": "> 30", "unit": "µM"}]}, {"smiles": "C/C(=N\\NC(=O)CCCc1ccc(C)cc1)c1ccc(NC(=O)c2ccco2)cc1", "note": "[compound 23, O=C(CCCC1=CC=C(C)C=C1)N/N=C(C)/C2=CC=C(NC(C3=CC=CO3)=O)C=C2]", "values": [{"measurement": "CC50", "setting": "in vitro", "value": "> 30", "unit": "µM"}]}]}
